Test results: patent US12439945B2, “Method of improving flavor of a composition of (D)-β-hydroxybutyric acid and (D)-1,3 butanediol and use as a nutritional supplement and therapeutic agent” (VitaNav, Inc., priority 2020, dated 2025)

Experiment: Circulating ketone level and ketotic efficiency after administration of D-BHB, D-BHV and D-1,3BD in various ratios to subjects at rest
Assay type: in vivo, human
Settings: based on measured plasma levels of FIG. 1
From the text: Examples include using a composition including D-BHB, D-BHV, and D-1,3BD in a subject at rest. The ketotic efficiency represents the net elevation of circulating ketones a ketone supplement affects over time in an individual. Ketotic efficiency may be represented as: Σt=0^n(mMol/L)/(g/kg)*t where mMol/L is the concentration of circulating β-hydroxybutyrate in the blood, g is the total dose of the combined D-BHB, D-BHV, and D-1,3,BD in grams, kg is the mass of the individual in kilograms, and t is an increment of time in minutes.
While this example pertains to a fasted subject at rest, the relative utility of blended vs pure constituents has also been observed in fed and active subjects.
As illustrated by the examples of FIG. 1, these exemplary compositions can advantageously elevate circulating ketones by approximately two times greater than other known compositions. Such a composition can sustain ketonemia for longer than either D-BHB or D-1,3BD can when ingested alone by a subject of a given weight as shown by the 100% line (i.e., contains D-BHB, but not D-1,3BD) and the 0% line (i.e., contains only D-1,3BD, but not D-BHB).
As shown in the following table, the increase in circulating ketone level with a 10 g dose in three human subjects at rest was maximal at between 45-55% D-BHB in the tested compositions. […]

## CC(O)CCO [D-1,3BD, (D)-1,3 butanediol]
  prolonged rise of blood ketone levels: does not cause a prolonged rise of blood ketone levels

## CC(O)CC(=O)O [D-BHB, (D)-β-hydroxybutyric acid]
  prolonged rise of blood ketone levels: A similar result was obtained
